The record followed here is patent US20240279236A1, “COMPOUNDS AND METHODS OF TREATING TUBERCULOSIS” (Fimbrion Therapeutics, Inc., priority 2021, published 2024).

A word on the IC50: it is the midpoint of a concentration-inhibition curve. Lower therefore signals higher potency.

Bounds are passed on as bounds.

This assay deals with WT Mtb Erdman strain. Nature of the assay: Microplate Alamar Blue Assay (MABA), Mtb growth inhibition. It counts as cell-based, Mycobacterium tuberculosis. To be noted: Mycobacterium tuberculosis, ERDMAN, 168 h, Middlebrook 7H9 media, 7 days at 37° C. in 5% CO2. A general note: Resazurin is reduced to fluorescent resorufin, in cell work by metabolically active cells.
`Cc1cc2c(NCCCc3ccc(-c4ccnc(C(F)(F)F)n4)cc3)nc(-c3ccoc3)nc2s1` [Example 385, 2-(furan-3-yl)-6-methyl-N-(3-(4-[2-(trifluoromethyl)pyrimidin-4-yl]phenyl)propyl) thieno[2,3-d]pyrimidin-4-amine]: the IC50 stood at 200 nM.

In the case of `Cc1cc2c(NC(=O)CCc3ccccc3)nc(-c3ccoc3)nc2s1` [Example 577, N-(2-(furan-3-yl)-6-methylthieno[2,3-d]pyrimidin-4-yl)-3-phenylpropanamide], the IC50 was 71 nM.

For `Cc1cc2c(NCCCc3ccc(-c4ccc(OC(F)(F)F)cc4)cc3)nc(Cl)nc2s1` [Example 433, 2-chloro-6-methyl-N-(3-(4′-(trifluoromethoxy)-[1,1′-biphenyl]-4-yl)propyl)thieno[2,3-d]pyrimidin-4-amine], the IC50 worked out at 54 nM.

As for `Cc1cc2c(NCCCc3cccc(Cl)c3)nc(C(F)(F)F)nc2s1` [Example 248, N-(3-(3-chlorophenyl)propyl)-6-methyl-2-(trifluoromethyl) thieno[2,3-d] pyrimidin-4-amine], the IC50 was 1800 nM.

Compound `Cc1cc2c(NCCCNc3ccccc3)nc(C(F)(F)F)nc2s1` [Example 173, N1-(6-methyl-2-(trifluoromethyl)thieno[2,3-d]pyrimidin-4-yl)-N3-phenylpropane-1,3-diamine] showed an IC50 of 3300 nM.

`CCc1nc(NCCCn2cccc2)c2cc(C)sc2n1` [Example 27, N-(3-(1H-pyrrol-1-yl)propyl)-2-ethyl-6-methylthieno[2,3-d]pyrimidin-4-amine] showed a concentration for half-maximal inhibition (IC50) of 210 nM.

For `Cc1cc2c(N[C@@H]3C[C@H]3c3ccc(F)c(F)c3)nc(N3CCC(F)(F)C3)nc2s1` [Example 523, N-((1R,2S)-2-(3,4-difluorophenyl)cyclopropyl)-2-(3,3-difluoropyrrolidin-1-yl)-6-methylthieno[2,3-d]pyrimidin-4-amine], the IC50 came out at 4500 nM.

`Cc1cc2c(NCCCc3ccccc3)nc(-c3cccnn3)nc2s1` [Example 104, 6-methyl-N-(3-phenylpropyl)-2-(pyridazin-3-yl)thieno[2,3-d]pyrimidin-4-amine] gave an IC50 of 2000 nM.

Take `Cc1cc2c(NCCCc3ccc(-c4ccc(N(C)C)cc4)cc3)nc(-c3ccoc3)nc2s1` [Example 325, N-(3-[4′-(dimethylamino)-[1,1′-biphenyl]-4-yl]propyl)-2-(furan-3-yl)-6-methylthieno[2,3-d]pyrimidin-4-amine]: the concentration for half-maximal inhibition (IC50) was 10 nM.

Turning to `CSc1nc(N[C@@H]2C[C@H]2c2ccc(F)c(F)c2)c2cc(C)sc2n1` [Example 53, N-((1R,2S)-2-(3,4-difluorophenyl)cyclopropyl)-6-methyl-2-(methylthio)thieno[2,3-d]pyrimidin-4-amine], the IC50 worked out at 240 nM.

The compound `COc1ccc(CCCNc2nc(-c3ccccn3)nc3sccc23)cc1` [Example 29, N-(3-(4-methoxyphenyl)propyl)-2-(pyridin-2-yl)thieno[2,3-d]pyrimidin-4-amine] gave an IC50 of 2300 nM.

On to `CCc1nc(NCCc2cccc([N+](=O)[O-])c2)c2cc(C)sc2n1` [Example 39, 2-ethyl-6-methyl-N-(3-nitrophenethyl)thieno [2,3-d]pyrimidin-4-amine], for which the IC50 was above 8800 nM.

`Cc1nc2c(NCCCc3ccccc3)nc(-c3ccc(C(F)(F)F)cn3)nc2s1` [Example 145, 2-methyl-N-(3-phenylpropyl)-5-(5-(trifluoromethyl)pyridin-2-yl)thiazolo[5,4-d]pyrimidin-7-amine] gave an IC50 of 7300 nM.

In turn, `Cc1cc2c(NCCCc3ccc(OC(F)(F)F)cc3)nc(C(F)(F)F)nc2s1` [Example 36, 6-methyl-N-(3-(4-(trifluoromethoxy)phenyl)propyl)-2-(trifluoromethyl)thieno [2,3-d]pyrimidin-4-amine] came in with an IC50 of 2100 nM.

On to `Cc1cc2c(NC/C=C/c3ccc(-c4ccc(OC(F)(F)F)cc4)cc3)nc(-c3ccoc3)nc2s1` [Example 323, 2-(furan-3-yl)-6-methyl-N-[(2E)-3-[4′-(trifluoromethoxy)-[1,1′-biphenyl]-4-yl]prop-2-en-1-yl]thieno[2,3-d]pyrimidin-4-amine], for which the IC50 is 37 nM.

`CCc1nc(NCCCc2ccc(-c3cc(Cl)ccc3Cl)cc2)c2cc(C)sc2n1` [Example 310, N-(3-(2′,5′-dichloro-[1,1′-biphenyl]-4-yl)propyl)-2-ethyl-6-methylthieno[2,3-d]pyrimidin-4-amine] showed an IC50 of 380 nM.

Regarding `Cc1cc(-c2nc(NCCCc3ccccc3)c3cc(C)sc3n2)c(C)o1` [Example 139, 2-(2,5-dimethylfuran-3-yl)-6-methyl-N-(3-phenylpropyl)thieno [2,3-d]pyrimidin-4-amine], the IC50 was above 10000 nM.

The compound `CC(=O)Nc1nc(NCCCc2ccc(-c3ccc(OC(F)(F)F)cc3)cc2)c2cc(C)sc2n1` [Example 599, N-(6-methyl-4-((3-(4′-(trifluoromethoxy)-[1,1′-biphenyl]-4-yl)propyl)amino)thieno[2,3-d]pyrimidin-2-yl)acetamide] returned an IC50 above 370 nM.

Take `Cc1nc2c(NCCCc3ccc(-c4ccc(OC(F)(F)F)cc4)cc3)nc(-c3ccoc3)nc2s1` [Example 294, 5-(furan-3-yl)-2-methyl-N-(3-(4′-(trifluoromethoxy)-[1,1′-biphenyl]-4-yl)propyl)thiazolo [5,4-d]pyrimidin-7-amine]: the IC50 was found to be 89 nM.

In turn, `FC(F)(F)c1ccc(CCCNc2nc(-c3ccccn3)nc3sccc23)cc1` [Example 30, 2-(pyridin-2-yl)-N-(3-(4-(trifluoromethyl)phenyl)propyl)thieno[2,3-d]pyrimidin-4-amine] yielded an IC50 of 2200 nM.

`Fc1ccc([C@@H]2C[C@H]2Nc2nc(Cl)nc3scnc23)cc1F` [Example 221, 5-chloro-N-((1R,2S)-2-(3,4-difluorophenyl)cyclopropyl)thiazolo [5,4-d]pyrimidin-7-amine] had an IC50 above 10000 nM.

On to `Fc1ccc([C@@H]2C[C@H]2Nc2nc(Cl)nc3sccc23)cc1F` [Example 220, 2-chloro-N-((1R,2S)-2-(3,4-difluorophenyl)cyclopropyl)thieno[2,3-d]pyrimidin-4-amine], for which the IC50 was above 7200 nM.

Take `CCc1nc(NCCC(C)(C)c2ccccc2)c2cc(C)sc2n1` [Example 66, 2-ethyl-6-methyl-N-(3-methyl-3-phenylbutyl)thieno [2,3-d]pyrimidin-4-amine]: half-maximal inhibition (IC50) was put at 6000 nM.

`Cc1cc2c(NCCCc3ccc(-c4ccc(OC(F)(F)F)cc4)cc3)nc(-c3ccncn3)nc2s1` [Example 426, 6-methyl-2-(pyrimidin-4-yl)-N-(3-(4′-(trifluoromethoxy)-[1,1′-biphenyl]-4-yl)propyl)thieno[2,3-d]pyrimidin-4-amine] came in with an IC50 of 76 nM.

With `Cc1cc2c(NCCCc3ccc(-c4cnccn4)cc3)nc(-c3ccoc3)nc2s1` [Example 391, 2-(furan-3-yl)-6-methyl-N-(3-[4-(pyrazin-2-yl)phenyl]propyl) thieno[2,3-d]pyrimidin-4-amine], the IC50 came out at 62 nM.

As to `Cc1cc2c(N[C@@H]3C[C@H]3c3ccc(F)c(F)c3)nc(-c3ccc(F)c(F)c3)nc2s1` [Example 500, 2-(3,4-difluorophenyl)-N-((1R,2S)-2-(3,4-difluorophenyl)cyclopropyl)-6-methylthieno[2,3-d]pyrimidin-4-amine], the IC50 turned out to be 3600 nM.

In turn, `Cc1cc2c(NCCCN(C)c3ccccc3)nc(C(F)(F)F)nc2s1` [Example 172, N1-methyl-N3-(6-methyl-2-(trifluoromethyl)thieno[2,3-d]pyrimidin-4-yl)-N1-phenylpropane-1,3-diamine] had an IC50 of 4200 nM.

In turn, `Cc1cc2c(NCCCc3ccccc3)nc(CS(C)(=O)=O)nc2s1` [Example 74, 6-methyl-2-((methylsulfonyl)methyl)-N-(3-phenylpropyl)thieno [2,3-d]pyrimidin-4-amine] gave an IC50 above 10000 nM.

Regarding `CCc1nc(NCCCc2ccc(N(C)C)cc2)c2cc(C)sc2n1` [Example 250, N-(3-(4-(dimethylamino)phenyl)propyl)-2-ethyl-6-methylthieno [2,3-d]pyrimidin-4-amine], the IC50 came out at 200 nM.

In the case of `Cc1cc2c(NCCCc3ccc(-c4ccc(N(C)C)nn4)cc3)nc(-c3ccoc3)nc2s1` [Example 400, 6-[4-(3-([2-(furan-3-yl)-6-methylthieno [2,3-d]pyrimidin-4-yl]amino)propyl)phenyl]-N,N-dimethylpyridazin-3-amine], the IC50 was above 500 nM.

As to `CCc1nc(NCCCc2ccc(-c3ccc(Cl)cc3)cc2)c2cc(C)sc2n1` [Example 273, N-(3-(4′-chloro-[1,1′-biphenyl]-4-yl)propyl)-2-ethyl-6-methylthieno[2,3-d]pyrimidin-4-amine], the IC50 was 38 nM.

In turn, `Cc1cc2c(NCCCc3ccc(-c4ccc(C(F)(F)F)cn4)cc3)nc(-c3cc[nH]c3)nc2s1` [Example 570, 6-methyl-2-(1H-pyrrol-3-yl)-N-(3-(4-(5-(trifluoromethyl)pyridin-2-yl)phenyl)propyl)thieno[2,3-d]pyrimidin-4-amine] displayed an IC50 of 230 nM.

The compound `Cc1cc(-c2nc(NCCCc3ccc(OC(F)(F)F)cc3)c3cc(C)sc3n2)no1` [Example 122, 6-methyl-2-(5-methylisoxazol-3-yl)-N-(3-(4-(trifluoromethoxy)phenyl)propyl)thieno [2,3-d]pyrimidin-4-amine] registered an IC50 of 190 nM.

`CCc1nc(NCCCc2ccc(OC(F)(F)F)c(F)c2)c2cc(C)sc2n1` [Example 252, 2-ethyl-N-(3-(3-fluoro-4-(trifluoromethoxy)phenyl)propyl)-6-methylthieno[2,3-d]pyrimidin-4-amine] gave an IC50 of 600 nM.

The compound `Cc1cc2c(NCCCc3ccccn3)nc(C(F)(F)F)nc2s1` [Example 159, 6-methyl-N-(3-(pyridin-2-yl)propyl)-2-(trifluoromethyl)thieno [2,3-d]pyrimidin-4-amine] displayed an IC50 above 10000 nM.

Turning to `CCc1nc(NCCCc2ccc(OC)c(F)c2)c2cc(C)sc2n1` [Example 260, 2-ethyl-N-(3-(3-fluoro-4-methoxyphenyl)propyl)-6-methylthieno[2,3-d]pyrimidin-4-amine], the IC50 stood at 200 nM.

`CCc1nc(NCCc2ccc(O)cc2)c2cc(C)sc2n1` [Example 67, 4-(2-((2-ethyl-6-methylthieno[2,3-d]pyrimidin-4-yl)amino)ethyl)phenol] yielded an IC50 above 10000 nM.
